# Laboratory results as given in ChEMBL document CHEMBL5113380, “Functionalized quinoxalinones as privileged structures with broad-ranging pharmacological activities” (Eur J Med Chem, 2022).
# Legend:
# Escherichia coli [1] = test: Antibacterial activity against Escherichia coli; format: functional
# Enterococcus faecalis = test: Antibacterial activity against Enterococcus faecalis; format: functional
# Staphylococcus aureus [2] = test: Antibacterial activity against Staphylococcus aureus; format: functional
# Klebsiella pneumoniae = test: Antibacterial activity against Klebsiella pneumoniae; format: functional
# [3] = tested on: Mycobacterium tuberculosis; test: Antimycobacterial activity against Mycobacterium tuberculosis H37Rv; format: functional
# Aspergillus fumigatus = test: Antifungal activity against Aspergillus fumigatus; format: functional
# Candida albicans = test: Antifungal activity against Candida albicans; format: functional
# Pyricularia grisea [4] = test: Antifungal activity against Magnaporthe grisea GD08-T19 at 50 ug/ml; format: functional; conditions: dose 50 µg/ml
# Pyricularia grisea [5] = test: Antifungal activity against Magnaporthe grisea GD08-T19 assessed as diameter zone of inhibition; format: functional
# [6] = Antioxidant activity assessed as NO radical scavenging activity; format: functional
# [7] = Antioxidant activity assessed as H2O2 radical scavenging activity; format: functional
# [8] = Antioxidant activity assessed as DPPH radical scavenging activity; format: functional
# Pichia kudriavzevii = test: Antifungal activity against Candida krusei; format: functional
# Nakaseomyces glabratus = test: Antifungal activity against Candida glabrata; format: functional
# Candida [9] = test: Antifungal activity against Candida species isolate 1; format: functional
# Candida [10] = test: Antifungal activity against Candida species isolate 3; format: functional
# Candida tropicalis = test: Antifungal activity against Candida tropicalis; format: functional
# Candida [11] = test: Antifungal activity against Candida species isolate 2; format: functional
# Candida parapsilosis = test: Antifungal activity against Candida parapsilosis; format: functional; conditions: Lodderomyces parapsilosis
# Staphylococcus aureus [12] = test: Antibacterial activity against Staphylococcus aureus assessed as diameter zone of inhibition; format: functional
# Bacillus subtilis = test: Antibacterial activity against Bacillus subtilis assessed as diameter zone of inhibition; format: functional
# [13] = Inhibition of cGMP-dependent 3',5'-cyclic phosphodiesterase (unknown origin); set-up: species or system Homo sapiens
# [14] = target: 3',5'-cyclic phosphodiesterase; test: Inhibition of cAMP-specific 3',5'-cyclic phosphodiesterase (unknown origin); format: protein assay, Homo sapiens
# Mesenteric vein = test: Vasorelaxant activity in dog mesenteric veins; format: functional, tissue-based; conditions: Canis lupus familiaris
# Coronary artery = test: Vasorelaxant activity in dog coronary arteries; format: functional, tissue-based; conditions: Canis lupus familiaris
# Papillary muscle = test: Positive inotropic activity in ferret papillary muscle assessed as contractile force measured as CFC20; format: functional, Mustela putorius furo
# [15] = Inhibition of ALR2 (unknown origin); set-up: species or system Homo sapiens
# [16] = Inhibition of ALR1 (unknown origin) relative to control; set-up: concentration or dose not given beside the values; conditions: Homo sapiens; concentration not given here
# [17] = Antioxidant activity assessed as DPPH radical scavenging activity at 100 uM; format: functional
# [18] = Inhibition of lipid peroxidation at 100 uM by measuring MDA concentration; format: functional
# Escherichia coli [19] = test: Antibacterial activity against Escherichia coli W3110; format: functional
# Streptococcus pneumoniae = test: Antibacterial activity against Streptococcus pneumoniae; format: functional
# [20] = Inhibition of Escherichia coli topoisomerase 4
# [21] = Dissociation constant, pKa of the compound; format: physicochemical
# Pseudomonas aeruginosa = test: Antibacterial activity against Pseudomonas aeruginosa; format: functional
# Escherichia coli [22] = test: Antibacterial activity against Escherichia coli assessed as diameter zone of inhibition; format: functional
# HepG2 = test: Antiproliferative activity against human HepG2 cells; format: functional, cell-based
# MCF7 = test: Antiproliferative activity against human MCF7 cells; format: functional, cell-based
# [23] = target: Vascular endothelial growth factor receptor 2 (Homo sapiens, UniProt P35968)
# Sequence of Vascular endothelial growth factor receptor 2 (P35968 whole entry): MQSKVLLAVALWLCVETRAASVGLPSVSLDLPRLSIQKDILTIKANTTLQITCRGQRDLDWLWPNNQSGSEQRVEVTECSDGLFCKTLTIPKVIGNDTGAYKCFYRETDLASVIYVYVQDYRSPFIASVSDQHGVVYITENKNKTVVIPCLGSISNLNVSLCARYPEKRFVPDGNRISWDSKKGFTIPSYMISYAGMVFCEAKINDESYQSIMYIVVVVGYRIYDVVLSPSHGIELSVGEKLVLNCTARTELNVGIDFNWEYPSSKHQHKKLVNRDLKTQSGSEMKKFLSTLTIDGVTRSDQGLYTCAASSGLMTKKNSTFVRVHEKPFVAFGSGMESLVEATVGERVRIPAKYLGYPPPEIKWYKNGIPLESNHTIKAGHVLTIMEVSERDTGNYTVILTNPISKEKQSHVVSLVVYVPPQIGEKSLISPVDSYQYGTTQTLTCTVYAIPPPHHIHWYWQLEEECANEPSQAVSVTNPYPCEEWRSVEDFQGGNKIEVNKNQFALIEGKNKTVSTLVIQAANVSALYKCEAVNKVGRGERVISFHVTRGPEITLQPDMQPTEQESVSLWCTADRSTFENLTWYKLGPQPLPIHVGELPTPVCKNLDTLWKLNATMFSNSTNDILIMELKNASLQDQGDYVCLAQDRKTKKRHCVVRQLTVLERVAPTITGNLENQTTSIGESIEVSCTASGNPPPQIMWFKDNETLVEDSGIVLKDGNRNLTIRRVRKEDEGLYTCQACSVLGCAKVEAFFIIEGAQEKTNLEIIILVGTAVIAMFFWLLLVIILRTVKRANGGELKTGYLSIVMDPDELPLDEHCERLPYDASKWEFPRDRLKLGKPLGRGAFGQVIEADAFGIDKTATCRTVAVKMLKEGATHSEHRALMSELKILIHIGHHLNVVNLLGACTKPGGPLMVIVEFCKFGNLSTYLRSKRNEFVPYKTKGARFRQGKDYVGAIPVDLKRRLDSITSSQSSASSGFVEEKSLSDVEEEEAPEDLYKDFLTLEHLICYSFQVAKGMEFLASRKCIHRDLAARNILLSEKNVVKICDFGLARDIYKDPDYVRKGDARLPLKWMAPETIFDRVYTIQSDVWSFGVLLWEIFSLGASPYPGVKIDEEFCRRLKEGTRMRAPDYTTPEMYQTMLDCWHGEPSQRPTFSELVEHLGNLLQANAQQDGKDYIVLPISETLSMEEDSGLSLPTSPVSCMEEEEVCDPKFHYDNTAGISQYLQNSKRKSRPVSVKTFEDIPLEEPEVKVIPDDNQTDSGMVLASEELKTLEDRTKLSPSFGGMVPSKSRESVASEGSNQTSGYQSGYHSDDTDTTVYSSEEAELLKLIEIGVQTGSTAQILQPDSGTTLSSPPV
# Staphylococcus aureus [24] = test: Antibacterial activity against methicillin-resistant Staphylococcus aureus; format: functional
smiles,measurement,setting,value
C/C(=N\NC(=O)Cn1c(=O)c(C)nc2ccccc21)c1ccc(N)cc1,MIC,Escherichia coli [1],125 µg/mL
same,MIC,Enterococcus faecalis,16.1 µg/mL
same,MIC,Staphylococcus aureus [2],125 µg/mL
same,MIC,Klebsiella pneumoniae,125 µg/mL
same,MIC,[3],25 µg/mL
same,MIC,Aspergillus fumigatus,1 µg/mL
same,MIC,Candida albicans,16.1 µg/mL
Cn1c(=O)c(C(CCCOC(=O)c2cccs2)CC(F)(F)F)nc2ccccc21 (centres undefined),Activity,Pyricularia grisea [4],23%
same,diameter of the inhibition zone (DIZ),Pyricularia grisea [5],47 mm
Cc1nc2ccccc2n(CC(=O)N/N=C/c2ccc(OCCn3cc(CN4CCCCC4)nn3)cc2)c1=O,IC50,[6],52.08 µg/mL
same,IC50,[7],54.34 µg/mL
same,IC50,[8],28.24 µg/mL
O=c1[nH]c2cc(C(F)(F)F)ccc2nc1C(F)(F)F,MIC,Pichia kudriavzevii,250 µg/mL
same,MIC,Nakaseomyces glabratus,125 µg/mL
same,MIC,Candida [9],15.6 µg/mL
same,MIC,Candida [10],125 µg/mL
same,MIC,Candida tropicalis,125 µg/mL
same,MIC,Candida [11],125 µg/mL
same,MIC,Candida parapsilosis,15.6 µg/mL
same,MIC,Candida albicans,8 µg/mL
O=c1[nH]c2ccccc2nc1Cc1nnc(S)o1,diameter of the inhibition zone (DIZ),Staphylococcus aureus [12],11 mm
same,diameter of the inhibition zone (DIZ),Bacillus subtilis,10 mm
Cc1nc2ccccc2n(CC(=O)N/N=C/c2ccc(OCCn3cc(CN4CCOCC4)nn3)cc2)c1=O,IC50,[6],47.16 µg/mL
same,IC50,[7],49.01 µg/mL
same,IC50,[8],25 µg/mL
Cn1c(=O)c(C(CCCNC(=O)c2ccc(OC(F)(F)F)cc2)CC(F)(F)F)nc2ccccc21 (centres undefined),Activity,Pyricularia grisea [4],49%
same,diameter of the inhibition zone (DIZ),Pyricularia grisea [5],32 mm
C/C(=N\NC(=O)Cn1c(=O)c(C)nc2ccccc21)c1ccc(O)cc1,MIC,Escherichia coli [1],125 µg/mL
same,MIC,Enterococcus faecalis,16.1 µg/mL
same,MIC,Staphylococcus aureus [2],250 µg/mL
same,MIC,Klebsiella pneumoniae,125 µg/mL
same,MIC,[3],25 µg/mL
same,MIC,Aspergillus fumigatus,4 µg/mL
same,MIC,Candida albicans,4 µg/mL
Oc1nc2cccnc2n2ccnc12,IC50,[13],27000 nM
same,IC50,[14],44000 nM
same,EC50,Mesenteric vein,10000 nM
same,EC50,Coronary artery,11000 nM
same,Activity,Papillary muscle,2.2 µM
O=c1[nH]c2ccc(C(F)(F)F)cc2nc1CBr,MIC,Pichia kudriavzevii,62.5 µg/mL
same,MIC,Nakaseomyces glabratus,62.5 µg/mL
same,MIC,Staphylococcus aureus [2],31.2 µg/mL
same,MIC,Candida [9],15.6 µg/mL
same,MIC,Candida [10],62.5 µg/mL
same,MIC,Candida tropicalis,> 500 µg/mL
same,MIC,Candida [11],62.5 µg/mL
same,MIC,Candida parapsilosis,250 µg/mL
same,MIC,Candida albicans,31.2 µg/mL
O=C(O)Cn1c(=O)c(Oc2ccc(O)cc2)nc2cc(F)ccc21,IC50,[15],19.6 nM
same,inhibition,[16],11.8%
same,Activity,[17],23.7%
same,inhibition,[18],14.3%
N#Cc1ccc2ccc(=O)n(CCN3CC[C@H](NCc4cc5c(cn4)OCCO5)[C@H](F)C3)c2c1,MIC,Escherichia coli [19],4 µg/mL
same,MIC,Staphylococcus aureus [2],0.06 µg/mL
same,MIC,Streptococcus pneumoniae,0.13 µg/mL
same,IC50,[20],48 nM
same,pKa,[21],4.47
same,MIC,Pseudomonas aeruginosa,> 8 µg/mL
COc1ccc2ncc(=O)n(CCN3CCC(NCc4cc5c(cn4)OCCO5)CC3)c2c1,MIC,Escherichia coli [19],0.5 µg/mL
same,MIC,Staphylococcus aureus [2],0.02 µg/mL
same,MIC,Streptococcus pneumoniae,0.06 µg/mL
same,IC50,[20],5 nM
same,MIC,Pseudomonas aeruginosa,4 µg/mL
O=C1CN(C(=O)CNc2ccccc2O)c2ccccc2N1,diameter of the inhibition zone (DIZ),Escherichia coli [22],11 mm
CCc1ncc2c(O)nc3cccnc3n12,IC50,[13],7000 nM
same,IC50,[14],1000 nM
same,EC50,Mesenteric vein,500 nM
same,EC50,Coronary artery,300 nM
same,Activity,Papillary muscle,0.1 µM
N#Cc1ccc2c(c1)N(CCN1CCC(NCc3ccc4c(n3)NC(=O)CO4)CC1)C(=O)CO2,MIC,Escherichia coli [19],0.25 µg/mL
same,MIC,Staphylococcus aureus [2],0.13 µg/mL
same,MIC,Streptococcus pneumoniae,0.5 µg/mL
same,IC50,[20],3.2 nM
same,MIC,Pseudomonas aeruginosa,2 µg/mL
Cc1ccc(O)c(NC(=O)c2ccc(NC(=O)Cn3c(=O)c4nncn4c4ccccc43)cc2)c1,IC50,HepG2,7800 nM
same,IC50,MCF7,8100 nM
same,IC50,[23],3.9 nM
CSCCc1nc2ccc(N3C(=O)CSC3c3ccc(F)cc3)cc2[nH]c1=O (centres undefined),MBC,Escherichia coli [1],46.8 µM
same,MBC,Staphylococcus aureus [2],23.4 µM
same,MBC,Klebsiella pneumoniae,11.7 µM
same,MBC,Staphylococcus aureus [24],93.7 µM
same,IC50,[8]; read-out: IC50,156000 nM
same,MBC,Candida albicans,35.1 µM
same,MBC,Pseudomonas aeruginosa,70.3 µM
CCc1nc(C)c2c(O)nc3ccccc3n12,IC50,[13],400 nM
same,IC50,[14],2000 nM
same,EC50,Mesenteric vein,800 nM
same,EC50,Coronary artery,1700 nM
same,Activity,Papillary muscle,0.2 µM
